Here are results for two substances from patent EP1661584A1, “Use of conjugates of amatoxins and phallotoxins with macromolecules for cancer and inflammation therapy” (Faulstich, Heinz, Dr., priority 2004, dated 2006).

For test [1], the system named is actin. Briefly: actin binding. The source says:
In all cases the macromolecular conjugates were distinctly more toxic to tumor cells (>1000) than the native toxins. Of high importance for this cytotoxic activity is the presence of a disulfide group in the linker moiety between toxin and macromolecule. After uptake into the tumor cells the disulfide group is cleaved by reduction releasing thiopropionyl-aminophalloidin or thiopropionyl-aminophallacidin into cytoplasm.

Test [2] addresses DNA-dependent RNA polymerase II (Homo sapiens, UniProt P24928+P30876). The note with it: complex between amanitin and RNA polymerase II; cited from earlier work.

With thiopropionyl-aminophalloidin, the “actin binding compared with phalloidin” value in test [1] was “as tightly as phalloidin itself”. A word on the Kd: it is the concentration at which binding is half-saturated. For amanitin, the Kd in test [2] was 3 nM.
